Data: ChEMBL document CHEMBL1126436, “Taxol Photoaffinity Label: 7-(p-Azidobenzoyl)taxol Synthesis and Biological Evaluation” (1992)

What was measured:
Tubulin = assay: Compound was evaluated for the in vitro concentration required to produce 50% stimulation of the microtubule assembly; settings: read-out: ED50 (the source's name)
B16 = assay: Compound was evaluated for the concentration which inhibits B16 melanoma cell proliferation by 50%; type: functional; settings: Mus musculus, read-out: ED50 (the source's name)

EC50 (Tubulin) [nM]	EC50 (B16) [nM]	SMILES
15000	957	CC(=O)O[C@H]1C(=O)[C@]2(C)[C@@H](OC(=O)c3ccc(N=[N+]=[N-])cc3)C[C@H]3OC[C@@]3(OC(C)=O)[C@H]2[C@H](OC(=O)c2ccccc2)[C@]2(O)C[C@H](OC(=O)[C@H](O)C(NC(=O)c3ccccc3)c3ccccc3)C(C)=C1C2(C)C (some centres undefined)
700	31.5	CC(=O)O[C@H]1C(=O)[C@@]2(C)[C@H]([C@H](OC(=O)c3ccccc3)[C@]3(O)C[C@H](OC(=O)[C@H](O)[C@@H](NC(=O)c4ccccc4)c4ccccc4)C(C)=C1C3(C)C)[C@]1(OC(C)=O)CO[C@@H]1C[C@@H]2O [PACLITAXEL]
